Test results as given in US10416170B2, “Detection and removal of misfolded proteins/peptides” (OXPROTECT GMBH, priority 2011, dated 2019).

Tested on: misfolded proteins
Assay: Binding of misfolded proteins to biotinylated peptide on streptavidin plate (OD 492 nm) or Biacore sensor chip
Conditions: statement in words; data only in figures
Protocol: Biotinylated PRKLYDY (SEQ ID NO: 5) was coated on a preblocked streptavidin plate for 1 hour at room temperature. After a washing step different concentrations of HOCl-modified albumin, or HOCl-modified fibrinogen, or HOCl-modified antithrombin, or HOCl-modified LDL (including negative control) were added for 1 hour at room temperature. After another washing step mouse anti HSA antibody was added to HOCl-modified albumin, rabbit anti fibrinogen antibody to HOCl-modified fibrinogen, rabbit anti antithrombin antibody to HOCl-modified antithrombin and mouse anti Apo B antibody to HOCl-modified LDL for 1 hour at room temperature. After another washing step the corresponding peroxidase coupled secondary antibody was added for 1 hour at room temperature. After a final washing step it was stained with o-phenylenediamine-substrate and the reaction was stopped after 30 min with 4 N sulphuric acid. The optical density was measured at 492 nm. The result is illustrated in FIG. 1A and FIG. 1B.
Biotinylated HWRRAHLLPRLP (SEQ ID NO: 2) was coated on a preblocked streptavidin plate for 1 hour at room temperature. After a washing step different concentrations of HOCl-modified albumin, or HOCl-modified fibrinogen, or HOCl-modified antithrombin, or HOCl-modified LDL (including negative control) were added for 1 hour at room temperature. […] The optical density was measured at 492 nm (FIG. 8A and FIG. 8B). […]

Row | affinity for misfolded proteins (general binding partner) | Substance
1 | high affinity | PRKLYDY (Plasminogen peptide) [Pro, Arg, Lys, Leu, Tyr, Asp, Tyr]
2 | high degree of affinity | HWRRAHLLPRLP (ADAM15 peptide aa position 286-297) [His, Trp, Arg, Arg, Ala, His, Leu, Leu, Pro, Arg, Leu, Pro]
